In US20230121474A1, “STERILIZATION COMPOSITIONS AND METHODS FOR USING THEREOF” (Save Foods Ltd., priority 2020, published 2023):

What was measured:
[1] = system: pre-infected lemons (inoculum of homogenized infected lemons); assay: Decay of pre-infected, pricked lemons after sanitizing treatment; format: in vivo
Description: Inoculum preparation: Infected lemons were identified visually and collected under three different lemon trees on Moshav Beit Yitzhak. Ten of the more infected lemons were put into a food processor, diluted with rainwater and homogenized to uniform, grayish brown, slightly viscous liquid consistency.
They were sent to de-greening from which they were removed on 2nd day. All lemons were pricked in 6 different location on each lemon using a metal nail attached to a rubber stopper which ensured a uniform pricking depth of 1.5 mm on all the lemons. On the same day the liquidized inoculum was prepared as described above and all the lemons were dipped into the “infected” water solution for 30 seconds and allowed to dry at ambient room conditions—temperatures between […].
On the next day the lemons were treated as per description below to screen the various treatment's efficacy in controlling and preventing decay and spoilage of the pre-infected lemons. All treated lemons were divided and placed in separate cartons and allowed to dry. Disease progress of the lemons was monitored for 7 days with no visible disease symptoms. On day 8 after treatment all cartons were covered with plastic sheeting in order to increase ambient humidity to speed up disease development.

common fungal pathogen = assay: Decay of clementine infested with fungal pathogen after treatment; format: in vivo; settings: fruits infested at around 10^5 CFU, cold storage 9 to 21 days then room temperature
Experimental: Additionally, exemplary sanitizing composition (Composition B) was applied on clementine, and the fruit decay was evaluated as compared to only PAA treatment or untreated fruits. The fruits were infested with a common fungal pathogen at a concentration of around 10^5 CFU and inoculated for 16-24 hours before treatment. Following the treatments, the fruits were stored in cold storage for between 9 to 21 days and then stored in room temperature for shelf-life evaluation.

Listeria = assay: In-vitro antimicrobial activity, edible matter contaminated with bacteria dipped into test solution (CFU reduction); format: cell-based; settings: contact time 60 minutes
Experimental: The antimicrobial activity of the composition was tested in-vitro. […] The contact time was 60 minutes. The antimicrobial activity was assessed by calculating bacterial viability (e.g. reduction of the CFU).

[2] = Treatment 3: PAA 50 ppm/PAA 50 ppm, contact time 60 sec
[3] = Treatment 4: PAA 50 ppm/PAA 50 ppm, contact time 45 sec
[4] = Treatment 5: PAA 30 ppm, contact time 45 sec
[5] = acid blend 1:1:1 molar ratio with oxidizing agent, potent = at least 10^5-fold reduction of CFUs

CC(=O)OO [PAA, per-acetic acid]
% Infected Lemons 15 DAT [1, 2]: 16.7%
% Infected lemons 10 DAT [1, 2]: 0%
Infected Lemons 10 DAT [1, 2]: 0
Infected Lemons 15 DAT [1, 2]: 2
% Infected Lemons 15 DAT [1, 3]: 25%
% Infected lemons 10 DAT [1, 3]: 20%
Infected Lemons 10 DAT [1, 3]: 3
Infected Lemons 15 DAT [1, 3]: 3
% Infected Lemons 15 DAT [1, 4]: 40%
% Infected lemons 10 DAT [1, 4]: 40%
Infected Lemons 10 DAT [1, 4]: 4
Infected Lemons 15 DAT [1, 4]: 4
decay of clementine (common fungal pathogen): about 20%

OO [hydrogen peroxide]
minimum concentration of hydrogen peroxide within the solution (Listeria; [5]): 200 ppm
antimicrobial activity of the oxidizing agent alone (Listeria; without acid blend): Neither hydrogen peroxide, nor silver/hydrogen peroxide combination showed a significant antimicrobial activity

CCC(=O)O [propionic acid]
concentration of propionic acid within the solution sufficient for antibacterial activity (Listeria; [5]): 100 ppm
